{"source": "patent US7709645B2", "about": "“Pyrrolo-pyridine kinase modulators” (SGX Pharmaceuticals, Inc., priority 2004, dated 2010)", "data": [{"molecular_target": "T1, PDK1 kinase (Homo sapiens, UniProt O15530)", "T1 construct": "6x Histidine tag (TEV-cleavable) (cleaved yes); made in house; host or cells: Sf9 insect cells", "T1 sequence (O15530 1-556)": "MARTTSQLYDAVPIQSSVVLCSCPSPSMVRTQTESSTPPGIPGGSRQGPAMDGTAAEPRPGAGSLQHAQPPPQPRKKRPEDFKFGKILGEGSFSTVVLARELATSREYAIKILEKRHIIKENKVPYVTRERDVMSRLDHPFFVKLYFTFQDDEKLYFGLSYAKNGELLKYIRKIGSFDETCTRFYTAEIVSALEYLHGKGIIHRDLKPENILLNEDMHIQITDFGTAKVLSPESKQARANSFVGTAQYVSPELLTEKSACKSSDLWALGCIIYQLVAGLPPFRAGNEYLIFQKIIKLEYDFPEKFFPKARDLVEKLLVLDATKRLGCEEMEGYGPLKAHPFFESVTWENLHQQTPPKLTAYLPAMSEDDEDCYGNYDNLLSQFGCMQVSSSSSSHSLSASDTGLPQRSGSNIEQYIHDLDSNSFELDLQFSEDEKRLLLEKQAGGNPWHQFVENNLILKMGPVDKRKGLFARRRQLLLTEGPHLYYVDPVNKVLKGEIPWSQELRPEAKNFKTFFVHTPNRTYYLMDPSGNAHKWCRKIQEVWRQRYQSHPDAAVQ", "test": "PDK1 Bioassay (luminescence-based enzyme assay, Kinase-Glo)", "format": "biochemical", "details": "5 μM ATP", "source_text": "In addition to the c-Abl PK/LDH coupled assay (above), homogeneous luminescence-based inhibitor screening assays were developed for c-Abl, MET, AurA, and PDK1 kinases (among others). Each of these assays made use of an ATP depletion assay (Kinase-Glo™, Promega Corporation, Madison, Wis.) to quantitate kinase activity. The Kinase-Glo™ format uses a thermostable luciferase to generate luminescent signal from ATP remaining in solution following the kinase reaction. The luminescent signal is inversely correlated with the amount of kinase activity.\nMaterials: PDKtide peptide substrate=KTFCGTPEYLAPEVRREPRJLSEEEQEMFRDFDYIADWC (SEQ ID NO:3) (Upstate Cat#12-401), ATP (Sigma Cat#A-3377, FW=551), HEPES buffer, pH 7.5, 10% Brij 35 (Calbiochem Cat#203728), MgCl2, Staurosporine (Streptomyces sp. Sigma Cat#85660-1MG), white Costar 384-well flat-bottom plate (VWR Cat#29444-088), PDK1 kinase (see below), Kinase-Glo™ (Promega Cat#V6712).\nStock Solutions: 1 mM PDKtide substrate (1 mg in 200 μl, as supplied by Upstate), stored at −20° C.; 100 mM HEPES buffer, pH 7.5 (5 ml 1M HEPES stock+45 ml miliQH2O); 10 mM ATP (5.51 mg/ml in dH2O) stored at −20° C. (diluted 25 μl into total of 10 ml miliQH2O daily=25 μM ATP working stock); 100 mM MgCl2; 10% Brij 35 stored at 2-8° C.; 200 μM Staurosporine, 2× Kinase-Glo™ reagent (made fresh or stored at −20° C.).\nStandard Assay Setup for 384-well format (20 μl kinase reaction, 40 μl detection reaction): 10 mM MgCl2; 0.01 mM PDKtide; 1 μl test compound (in DMSO); 0.1 μg/ml PDK1 kinase; 5 μM ATP; 10 mM MgCl2; 100 mM HEPES+0.01% Brij buffer. Positive controls contained DMSO with no test compound. Negative controls contained 10 μM staurosporine. The kinase reactions were initiated at time t=0 by the addition of ATP. Kinase reactions were incubated at 21° C. for 40 min, then 20 μl of Kinase-Glo™ reagent were added to each well to quench the kinase reaction and initiate the luminescence reaction. After a 20 min incubation at 21° C., the luminescence was detected in a plate-reading luminometer.\nCell pellets produced from 6 L of Sf9 insect cells expressing human PDK1 were resuspended in a buffer containing 50 mM Tris-HCl pH 7.7 and 250 mM NaCl in a volume of approximately 40 mL per 1 L of original culture. One tablet of Roche Complete, EDTA-free protease inhibitor cocktail (Cat# 1873580) and 85 units Benzonase (Novagen Cat#70746-3)) were added per 1 L of original culture. The suspension was stirred for 1 hour at 4° C. Debris was removed by centrifugation for 30 minutes at 39,800×g at 4° C. The supernatant was decanted into a 500 mL beaker and 10 ml of a 50% slurry of Qiagen Ni-NTA Agarose (Cat#30250) that had been pre-equilibrated in 50 mM Tris-HCl pH 7.8, 500 mM NaCl, 10% Glycerol, 10 mM Imidazole, and 10 mM Methionine, were added and stirred for 30 minutes at 4° C. The sample was then poured into a drip column at 4° C. and washed with 10 column volumes of 50 mM Tris-HCl pH 7.8, 500 mM NaCl, 10% Glycerol, 10 mM Imidazole, and 10 mM Methionine. The protein was eluted using a step gradient with two column volumes each of the same buffer containing 50 mM, and 500 mM Imidazole, sequentially. The 6×Histidine tag was cleaved overnight using 40 units of TEV protease (Invitrogen Cat#10127017) per 1 mg of protein while dialyzing in 50 mM Tris-HCl pH 7.8, 500 mM NaCl, 10% Glycerol, 10 mM Imidazole, and 10 mM Methionine at 4° C. The 6× Histidine tag was removed by passing the sample over a Pharmacia 5 ml IMAC column (Cat# 17-0409-01) charged with Nickel and equilibrated in 50 mM Tris-HCl pH 7.8, 500 mM NaCl, 10% Glycerol, 10 mM Imidazole, and 10 mM Methionine. The cleaved protein eluted in the flow-through, whereas the uncleaved protein and the His-tag remained bound to the Ni-column. The cleaved protein fractions were combined and concentrated using spin concentrators. […]", "units": {"IC50": "µM"}, "values": [{"smiles": "COc1ccccc1-c1c[nH]c2ncc(-c3ccc4[nH]cc(CC(=O)O)c4c3)cc12", "note": "[AE10]", "IC50": "1 to 5"}, {"smiles": "N#Cc1cc(-c2cnc3[nH]cc(-c4ccc5[nH]ccc5c4)c3c2)ccc1O", "note": "[AE20]", "IC50": "1 to 5"}, {"smiles": "COc1cc(-c2cnc3[nH]cc(-c4ccccc4OC)c3c2)ccc1O", "note": "[AE64]", "IC50": "1 to 5"}, {"smiles": "Oc1cccc(-c2cnc3[nH]cc(-c4ccc(O)c(F)c4)c3c2)c1", "note": "[AE48]", "IC50": "1 to 5"}, {"smiles": "COc1ccccc1-c1c[nH]c2ncc(-c3ccc(S(N)(=O)=O)s3)cc12", "note": "[AE11]", "IC50": "1 to 5"}, {"smiles": "COc1ccccc1-c1c[nH]c2ncc(-c3ccc(S(N)(=O)=O)cc3)cc12", "note": "[AE21]", "IC50": "1 to 5"}, {"smiles": "Oc1cccc(-c2cnc3[nH]cc(-c4ccn[nH]4)c3c2)c1", "note": "[AE49]", "IC50": "1 to 5"}, {"smiles": "COc1ccccc1-c1c[nH]c2ncc(-c3cc[nH]c(=O)c3)cc12", "note": "[AE9]", "IC50": "1 to 5"}, {"smiles": "Nc1nc(-c2c[nH]c3ncc(-c4ccc5[nH]ccc5c4)cc23)cs1", "note": "[AE55]", "IC50": "< 1"}, {"smiles": "COc1cc(-c2cnc3[nH]cc(-c4ccc(O)cc4)c3c2)ccc1O", "note": "[AE58]", "IC50": "< 1"}, {"smiles": "CNC(=O)c1cc(-c2cnc3[nH]cc(-c4ccccc4OC)c3c2)cs1", "note": "[AE2]", "IC50": "1 to 5"}, {"smiles": "COc1ccccc1-c1c[nH]c2ncc(-c3csc(C(=O)N(C)C)c3)cc12", "note": "[AE3]", "IC50": "1 to 5"}]}]}
